Experimental data from patent US10105384B2, “Nucleic acids targeting TCTP for use in the treatment of chemo- or hormone-resistant cancers” (INSTITUT NATIONAL DE LA SANTE ET DE LA RECHERCHE MEDICALE …, priority 2010, dated 2018).
d = 2'-deoxy (DNA); r = 2'-OH (RNA)

What was measured:
TCTP = experiment: ASO sequences screening: TCTP expression by western blot and/or qRT-PCR; type: cell-based, human; conditions: WB and/or qRT-PCR, PC-3 cells overexpressing TCTP
Procedure: Western Blot analysis was performed as described previously (Rocchi et al., 2004, Cancer Res. 64:6595-602) with 1:5000 rabbit anti-Hsp27 polyclonal antibody (Assay Designs, Villeurbanne, France), 1:2000 rabbit TCTP polyclonal antibody (Abcam Inc., Cambridge, UK), 1:250 rabbit anti-MSL1v1 polyclonal antibody (Abcam Inc.), 1:500 mouse anti-ubiquitin monoclonal antibody (Santa Cruz Biotechnology Inc., Heidelberg, Germany) or 1:1000 rabbit anti-caspase-3 polyclonal antibody (Cell Signalling Technology Inc., Danvers, USA). Loading levels were normalized using 1:5000 rabbit anti-glyceraldehyde-3-phosphate dehydrogenase polyclonal (Abcam Inc.) or 1:2500 mouse anti-vinculine monoclonal antibodies (Sigma Chemical Co., St Louis, Mo., USA).
The quantitative reverse transcription polymerase chain reaction (qRT-PCR) analysis was done on a LightCycler detection system (Roche Applied Science, Meylan, France). Expression levels of 18S subunit of the ribosome gene were used as an internal control. First strand cDNA was synthesized from 1 μg of total RNA using random hexamers and expanded by reverse transcriptase according to the manufacturer's instructions (ImProm-II Reverse Transcription System, Promega, Charbonniéres-les-Bains, France), subsequently diluted 1:10 with water, and stored at −20° C. until use. TCTP and 18S polymerase chain reaction (PCR) products were detected by quantitative real time PCR (qRT-PCR) using the SYBR Premix Ex Taq (Takara Bio Inc, St Germain en Laye, France) following the manufacturer's instructions. Five microliters of diluted cDNA template were mixed with 10 μl SYBR Premix Ex Taq (including Taq polymerase, reaction buffer, MgCl2, SYBR green I dye, and deoxynucleotide triphosphate mix) and 0.4 μM forward and reverse primers, in a final volume of 20 μl. The following primers were used: TCTP forward 5′-[…]-3′ (SEQ ID NO: 8) and TCTP reverse 5′-[…]-3′; (SEQ ID NO: 9); 18S forward 5′-[…]-3′ (SEQ ID NO: 10) and 18S reverse 5′-[…]-3′ (SEQ ID NO: 11). After an initial Taq activation for 10 seconds at 95° C., Light Cycler PCR was done using 55 cycles with the following cycling conditions: 95° C. for 5 seconds, 58° C. for 7 seconds, and 72° C. for 14 seconds. Each sample was analyzed in duplicate and the experiment was repeated three times. Results were analyzed using RealQuant data analysis software (Roche, Neuilly-sur-seine, France). The results analysis was done with the 2(-Delta Delta C(T)) Method (Livak K J. et al., 2001; Methods. 25:402-8).
In order to find a sequence ASO having an inhibiting effect on TCTP expression, 30 ASO sequences have been designed 26 of which are shown in table 1. Said 30 sequences cover the TCTP mRNA (accession number NM_003295). Using BLAST program, the specificity of said sequences has been studied. Among said 30 sequences, only 15 sequences have been identified as being specific for TCPT mRNA sequence (see table 1). The effect of said ASO sequences on TCTP expression was tested by western blot analysis (WB) and/or by quantitative reverse transcription polymerase chain reaction (qRT-PCR) on PC-3 cells overexpressing TCTP. WB and qRT-PCR were performed as exposed in example 1.

PC-3 cells = experiment: MTT cell growth assay, PC-3 cells; type: cell-based, human; conditions: for enhancement of docetaxel sensitivity: PC-3 cells, 50 nM docetaxel 24 h, MTT
Procedure: In brief, cells were seeded in each well of 12-well microtiter plates (30 000 to 50 000 cells per well) and allowed to attach overnight. To study the effect of TCTP downregulation on apoptosis induced by docetaxel, PC-3 cells were transiently transfected the day after seeding with 5 nM of TCTP siRNA for 48 h or 100 nM of TCTP ASO for 72 h. Cells were then treated with 50 nM of docetaxel and MTT assays were performed after 24 h. To assess the effect of TCTP downregulation on Hsp27 cytoprotection, LNCaP-Mock and -Hsp27 cells were transiently transfected the day after seeding with 5 nM of TCTP siRNA for 48 h. The down- or upregulation of TCTP effect on LNCaP and C4-2 cell viability was realized after transient transfections with 100 nM of TCTP ASO or 0.02 μg/μl of pDEST-TCTP for 72 h and 48 h respectively. Cells were then treated with 1 nM of docetaxel in serum-free media (mimics androgen withdrawal in vitro) and crystal violet assays were performed the day after. Each assay was performed in triplicate.
To assess the effect of TCTP down-regulation on CR cell growth, PC-3 cells were treated for 1 day with 5 nM TCTP siRNA or for 2 days with 100 nM TCTP ASO. At the end of the treatment, PC-3 cells were incubated with 50 nM of docetaxel. Growth rates of PC-3 cells were examined using the 3-(4,5-dimethylthiazol-2-yl)-2,5-diphenyltetrazolium bromide assay. […] The effect of the inhibition of TCTP on cell survival was analyzed in PC-3 after combined ASO and docetaxel-chemotherapy treatment. After 24 h of treatment with 50 nM of docetaxel, cell viability was determined using a MTT assay. The experiment was repeated in triplicate. *** differs from PC-3 transfected with control-siRNA (P50.001) using Statview software. […] The same effect has been observed with TCTP siRNA (SEQ ID NO: 3) and 5′-[…]-3′ (SEQ ID NO: 14) and 5′-[…]-3′ (SEQ ID NO: 15) ASOs.
PC3 cells were transfected with a TCTP siRNA of SEQ ID NO: 3. Cell proliferation and apoptosis were studied using respectively MTT (3-(4,5-dimethylthiazol-2-yl)-2,5-diphenyl tetrazolium bromure) assay and flow cytometry.
PC3 cells were transfected with a TCTP ASO of SEQ ID NO: 2. Cell proliferation and apoptosis were studied using respectively MTT assay and flow cytometry.

5′-ACCAATGAGCGAGTCATCAA-3′ (phosphorothioate backbone, further chemistry not given here) [ASO10]
ability to inhibit TCTP expression (TCTP): strong ability to inhibit TCTP expression
best ability to inhibit specifically TCTP expression (TCTP): best ability to inhibit specifically TCTP expression
enhancement of docetaxel sensitivity (PC-3 cells): up to 25%
decrease of proliferation of PC3 cells (PC-3 cells; TCTP ASO, MTT assay (summary, FIG. 13)): 58%

5′-AACCCGUCCGCGAUCUCCCdGdG-3′ (AACCCGUCCGCGAUCUCCCGG; siRNA; sugars from the 5' end r19 d2, backbone not given here) [TCTP siRNA, from Qiagen]
reduction in PC-3 cell growth (PC-3 cells; 5 nM siRNA alone, 4 days after treatment, compared to scrambled control): 55%
enhancement of docetaxel sensitivity (PC-3 cells): same effect
decrease of proliferation of PC3 cells (PC-3 cells; TCTP siRNA, MTT assay (summary, FIG. 12)): 48.1%
